Entries after “also recorded” stand apart in the source; their conditions may differ.
Key:
[1] = test system: INS-1 cells; test: Glucose stimulated insulin secretion (GSIS) of INS-1 cell; type: cell-based, rat; conditions: for Stimulation index (SI): insulin secreted at 16.7 mM glucose divided by that at 3.3 mM glucose; for insulin secretion of INS-1 cells: summary in words of Tables 3 and 4
Protocol: Cell line INS-1 (Biohermes, Shanghai, China) is a […] insulinoma species and has insulin secretion ability. INS-1 cells were cultured in RPMI1640 (Cellgro, Manassas, Va., USA) medium supplemented with 10% fetal bovine serum (FBS), 100 units/mL penicillin G, 100 μg/mL streptomycin, 10 mM HEPES, 2 mM L-glutamine, 1 mM sodium pyruvate and 0.05 mM 2-mercapto ethanol under a condition of a temperature of 37° C., 90% air, and 10% CO2. Among the above-mentioned components, reagents not mentioned by the manufacturer were purchased from Gibco BRL, Life Technologies. 5×10^5 cultured INS-1 cells were inoculated in each well of the 12-well plate in the same medium of 2 mL and cultured for 24 hours under the same condition as described in Section (1) INS-1 cell culture to stabilize the cells. Then, 114 mM sodium chloride (NaCl), 4.4 mM potassium chloride (KCl), 1 mM magnesium sulfate (MgSO4), 1.28 mM calcium chloride (CaCl2)), 29.5 mM sodium hydrogen carbonate (NaHCO3), 10 mM HEPES; Gibco BRL Life Technologies), and 0.1% bovine serum albumin (BSA) were mixed, and the cells were washed twice with 2 mL of Krebs-Ringer buffer with a hydrogen ion concentration of pH 7.4. Thereafter, 2 mL of Krebs-Ringer buffer was added to the washed cells and incubated for 1 hour. Then, the ginger extract, each fraction, and each compound were incubated for 30 minutes in 1.8 mL of Krebs-Ringer buffer at a specific concentration. The specific concentrations of the ginger extract and a fraction thereof were set to 1 μg/m L, 2.5 μg/mL, and 5 μg/mL, and the specific concentrations of the single compound were set to 1 μM, 2.5 μM, and 5 μM. 0.2 mL of Krebs-Ringer buffers containing 33 mM and 167 mM glucose were each added to the wells and incubated for 1 hour. Thereafter, after centrifugation at 12,000 revolutions per minute (rpm) for 10 minutes at a temperature of 4° C., the supernatant was taken, and the amount of insulin was measured with a Rat insulin RIA kit (Gentaur Molecular Products, Belgium). The stimulation index (SI) is a value obtained by dividing a value measured at a high glucose concentration, that is, the amount of insulin secreted by stimulation of a 16.7 mM glucose concentration by a value measured at a low glucose concentration, that is, the amount of insulin secreted by stimulation of a 3.3 mM glucose concentration. As a positive control, gliclazide was used at concentrations of 2.5 μM, 5.0 μM, 10 μM, and 20 μM.

[2] = through induction of cell defense mechanisms; cited from earlier work
[3] = test system: INS-1 cells; test: INS-1 cell toxicity (CCK-8 cell viability); conditions: for Cell viability (%): 24 hours, INS-1 cells, CCK-8; for toxicity against INS-1 cells: summary of Tables 1 and 2, up to 5 μg/mL or 5 μM
Protocol: Cell line INS-1 (Biohermes, Shanghai, China) is a […] insulinoma species and has insulin secretion ability. INS-1 cells were cultured in RPMI1640 (Cellgro, Manassas, Va., USA) medium supplemented with 10% fetal bovine serum (FBS), 100 units/mL penicillin G, 100 μg/mL streptomycin, 10 mM HEPES, 2 mM L-glutamine, 1 mM sodium pyruvate and 0.05 mM 2-mercapto ethanol under a condition of a temperature of 37° C., 90% air, and 10% CO2. Among the above-mentioned components, reagents not mentioned by the manufacturer were purchased from Gibco BRL, Life Technologies. The cultured INS-1 cells were inoculated in each well of a 96-well plate in the number of 1×10^4 in a medium of 100 μL and cultured for 24 hours to stabilize the cells. Next, the ginger extract, fraction thereof, and single compounds were added to a specific concentration, followed by culturing for 24 hours. Next, 10 μL of a CCK-8 reagent (Dojindo Laboratories, Japan) was added to each well, followed by culturing at a temperature of 37° C. After 1 hour, cell viability was measured by measuring absorbance at a wavelength of 450 nm on a BIO-TEK (Winooski, Vt., USA) microplate reader. The specific concentrations of the ginger extract and a fraction thereof were set to 1 μg/m L, 2.5 μg/mL, and 5 μg/mL, and the specific concentrations of the single compound were set to 1 μM, 2.5 μM, and 5 μM. Cell viability in Tables 1 and 2 was calculated as follows. Cell viability (%)=A/B×100 A: absorbance of sample to which a reagent is […]

[4] = test system: ICR mice; test: Oral glucose tolerance test (OGTT); type: in vivo, mouse; conditions: 100 mg/kg oral 1 hour before glucose 2 g/Kg, caudal vein blood at 0-120 minutes, vs control and unprocessed/6-gingerol group
Protocol: ICR mice were used for OGTT experiments. ICR mice were fasted for 12 hours before the experiment, blood was collected from the caudal vein of mice that had been fasted for 12 hours, and the fasting blood glucose level was measured as the initial blood glucose level. Thereafter, experiments were conducted with a group administered with glucose (2 g/Kg) (control), a group administered with glucose and a raw ginger extract (100 mg/kg, not processed), and a group administered with a microwave-processed ginger product (100 mg/kg, processed). After oral administration for each concentration, glucose was orally administered 1 hour later, and measurement was performed by using a blood glucose meter from the caudal vein at 0, 15, 30, 60, and 120 minutes. FIG. 3 is a graph of results of an oral glucose tolerance test of a ginger extract and a microwave-processed ginger product.
Next, to test the efficacy of a single component of ginger, blood was collected from the caudal vein of mice that had been fasted for 12 hours, and the fasting blood glucose level was measured as the initial blood glucose level. Thereafter, experiments were conducted with a group administered with glucose (2 g/Kg) (control), a group administered with glucose and 6-gingerol (100 mg/kg), and a group administered with glucose and 6-shogaol (100 mg/kg). […]

CCCCCCC[C@H](O)CC(=O)CCc1ccc(O)c(OC)c1 [[8]-gingerol]
Stimulation index (SI) ([1]; 1 μM): 1.1 ± 0.0 | Stimulation index (SI) ([1]; 2.5 μM): 1.5 ± 0.0 | Stimulation index (SI) ([1]; 5 μM): 2.1 ± 0.0 | insulin secretion of INS-1 cells [1]: secreted insulin concentration-dependently

shogaol
anticancer activity compared with [6]-gingerol [2]: more than 10 times

CCCCCCC/C=C/C(=O)CCc1ccc(O)c(OC)c1 [[8]-shogaol]
Cell viability (%) ([3]; 1 μM): 94.0 ± 2.6% | Cell viability (%) ([3]; 2.5 μM): 96.3 ± 1.9% | Cell viability (%) ([3]; 5 μM): 92.4 ± 1.7% | toxicity against INS-1 cells [3]: not to exhibit toxicity | Stimulation index (SI) ([1]; 1 μM): 1.3 ± 0.1 | Stimulation index (SI) ([1]; 2.5 μM): 1.5 ± 0.1 | Stimulation index (SI) ([1]; 5 μM): 1.8 ± 0.1 | insulin secretion of INS-1 cells [1]: secreted insulin concentration-dependently

CCCCC/C=C/C(=O)CCc1ccc(O)c(OC)c1 [[6]-shogaol]
Cell viability (%) ([3]; 1 μM): 101.1 ± 0.4% | Cell viability (%) ([3]; 2.5 μM): 101.8 ± 0.7% | Cell viability (%) ([3]; 5 μM): 101.2 ± 0.2% | toxicity against INS-1 cells [3]: not to exhibit toxicity | Stimulation index (SI) ([1]; 1 μM): 3.0 ± .0 | Stimulation index (SI) ([1]; 2.5 μM): 3.5 ± 0.1 | Stimulation index (SI) ([1]; 5 μM): 4.8 ± 0.0 | insulin secretion of INS-1 cells [1]: secreted insulin concentration-dependently; also recorded: promote insulin secretion in INS-1 cells, as compared with other components | increase in blood glucose level [4]: significantly reduced

CCCCCCCCC[C@H](O)CC(=O)CCc1ccc(O)c(OC)c1 [[10]-gingerol]
Cell viability (%) ([3]; 1 μM): 99.3 ± 1.6% | Cell viability (%) ([3]; 2.5 μM): 100.6 ± 3.3% | Cell viability (%) ([3]; 5 μM): 100.7 ± 3.5% | toxicity against INS-1 cells [3]: not to exhibit toxicity | Stimulation index (SI) ([1]; 1 μM): 1.7 ± 0.2 | Stimulation index (SI) ([1]; 2.5 μM): 1.7 ± 0.1 | Stimulation index (SI) ([1]; 5 μM): 1.5 ± 0.1 | insulin secretion of INS-1 cells [1]: secreted insulin concentration-dependently

CCCCC[C@H](O)CC(=O)CCc1ccc(O)c(OC)c1 [[6]-gingerol]
Cell viability (%) ([3]; 1 μM): 98.1 ± 2.7% | Cell viability (%) ([3]; 2.5 μM): 98.7 ± 2.3% | Cell viability (%) ([3]; 5 μM): 98.2 ± 3.5% | toxicity against INS-1 cells [3]: not to exhibit toxicity | Stimulation index (SI) ([1]; 1 μM): 2.4 ± 0.0 | Stimulation index (SI) ([1]; 2.5 μM): 2.2 ± 0.1 | Stimulation index (SI) ([1]; 5 μM): 2.3 ± 0.1 | insulin secretion of INS-1 cells [1]: secreted insulin concentration-dependently

CCCCCCCCC/C=C/C(=O)CCc1ccc(O)c(OC)c1 [[10]-shogaol]
Cell viability (%) ([3]; 1 μM): 101.9 ± 2.2% | Cell viability (%) ([3]; 2.5 μM): 99.8 ± 3.9% | Cell viability (%) ([3]; 5 μM): 99.6 ± 3.3% | toxicity against INS-1 cells [3]: not to exhibit toxicity | Stimulation index (SI) ([1]; 1 μM): 1.9 ± 0.0 | Stimulation index (SI) ([1]; 2.5 μM): 1.4 ± 0.0 | Stimulation index (SI) ([1]; 5 μM): 1.4 ± 0.1 | insulin secretion of INS-1 cells [1]: secreted insulin concentration-dependently

Cc1ccc(S(=O)(=O)NC(=O)NN2CC3CCCC3C2)cc1 (stereo not shown) [Glyclazide, gliclazide, reference compound]
Cell viability (%) ([3]; 1 μM): 99.7 ± 0.2% | Cell viability (%) ([3]; 2.5 μM): 96.3 ± 0.9% | Cell viability (%) ([3]; 5 μM): 91.1 ± 1.4% | Stimulation index (SI) ([1]; 1 μM): 1.3 ± 0.0 | Stimulation index (SI) ([1]; 2.5 μM): 1.9 ± 0.1 | Stimulation index (SI) ([1]; 5 μM): 3.0 ± 0.1

Source: patent US20220133835A1, “ANTIDIABETIC COMPOSITION COMPRISING GINGER EXTRACT OBTAINED FROM MICROWAVE-PROCESSED GINGER AND METHOD OF PREVENTING OR TREATING DIABETIS MELLITUS” (priority 2020, published 2022)
